From patent US20240409939A1 (Hoffmann-La Roche Inc., priority 2021, published 2024)
Oligonucleotides are written 5' to 3', each unit as a sugar letter and its base; * is a phosphorothioate linkage, no mark a phosphodiester; rarer units and linkages stand in square brackets, end groups in braces. Plain capitals give the bases only. l = locked nucleic acid (LNA); [5mC] = 5-methylcytosine; d = 2'-deoxy (DNA)

What was measured:
[1] = system: RTEL1 mRNA; test: RTEL1 mRNA qPCR in HBV infected PHH cells (Example 1.1); format: cell-based, human; conditions: 16 days-treatment, % of average no drug control (NDC)
Description: (§1) Fresh primary human hepatocytes (PXB-PHH) harvested from humanized mice (uPA/SCID mice)-herein called PHH-were obtained from PhoenixBio Co., Ltd (Japan) in 96-well format and cultured in modified hepatocyte clonal growth medium (dHCGM). dHCGM is a DMEM medium containing 100 U/ml Penicillin, 100 μg/ml Streptomycin, 20 mM Hepes, 44 mM NaHCO3, 15 μg/ml L-proline, 0.25 μg/ml Insulin, 50 nM Dexamethazone, 5 ng/ml EGF, 0.1 mM Asc-2P, 2% DMSO and 10% FBS (Ishida et al., 2015).
(§2) Cells were cultured at 37° C., in a humidified atmosphere with 5% CO2. Culture medium was replaced every 2 days until harvest, except over the weekend.
(§3) PHH were incubated with HBV (purified from chronic hepatitis B (CHB) individuals) at multiplicity of infection (MOI) of 40 together with 4% PEG for 24 hr. The virus inoculum was removed the following day and cells were washed 3 times with PBS before addition of fresh medium. To allow for cccDNA establishment, compound treatment in PHH was started at day 3 post HBV infection. The cells were dosed in a 1:10 dilution step dose response manner starting at 10 μM. On Day 3, Day 5 and Day 7 post HBV infection, the cells were dosed with oligonucleotide compounds in a final volume of 100 μl/well of dHCGM Medium. 10 nM Entecavir (ETV) treatment was started at Day 5 post infection, ensuring real cccDNA measurement by qPCR, and medium including 10 nM ETV was changed every two days (except over the weekend) until cells were harvested at Day 16 post HBV infection. The experiments were performed in biological triplicates.
Total mRNA was extracted from the cells using a Qiagen BioRobot Universal System and the RNeasy 96 well Extraction Plates (RNeasy 96 BioRobot 8000 Kit (12)/Cat No. ID: 967152) according to the manufacturer's protocol. The mRNA expression levels were analyzed using Real-time PCR on the ABI QuantStudio™ 12k Flex. […] Results were normalized over the human ACT B endogenous control. The mRNA expression was analyzed using the comparative cycle threshold 2-ΔΔCt method normalized to the reference gene ACT B and to non-treated cells.
PHH were cultured as described in the Materials and Methods section. HBV infected PHH cells were treated with the compounds from Table 6 as described above. […] The results are shown in Table 18 as % of the average no drug control (NDC) samples (i.e. the lower the value the larger the inhibition/reduction).

[2] = system: HBV cccDNA; test: HBV cccDNA quantification by qPCR in HBV infected PHH cells (Example 1.1); format: cell-based; conditions: 16 days-treatment, % of average no drug control (NDC)
Description: as §1, §2, §3
DNA was extracted from HBV infected Primary Human Hepatocytes using an SDS Lysis Buffer (50 mM Tris pH8, 5 mM EDTA, 1% SDS). After lysing cells in 80 μl SDS lysis buffer, samples were frozen at −80° C. for minimum 2 hours. […] After incubation, 3 volumes of ChIP DNA binding buffer from ZYMO Research Genomic DNA Clean & Concentrator kit (ZymoResearch, cat no. D4067) were added and DNA was purified following the manufacturer's protocol. DNA was eluted in 20 μl DNA Elution buffer and qPCR was performed using 2 μl DNA.
The cccDNA expression levels were quantified in technical duplicates using the comparative cycle threshold 2-ΔΔCt method. Quantitative real-time polymerase chain reaction measurements were performed on the QuantStudio 12K Flex PCR System (Applied Biosystems). Normalization was done to mitochondrial DNA (mitoDNA) and to non-treated cells as endogenous control using the Fast SYBR™ Green Master Mix (Life Technologies, Cat. No 4385612). Cycler settings were adjusted to incubation at 95° C. for 5 min, then 45 cycles of 95° C. for 1 sec and 60° C. for 35 sec. Primers used are listed Table 17 below (all probes in the chart are SYBR Green):
PHH were cultured as described in the Materials and Methods section. […]

[3] = system: RTEL1 mRNA; test: RTEL1 mRNA dose response in human MDA-MB-231 cell line (Example 1.2); format: cell-based; conditions: for IC50: RTEL1 mRNA, MDA-MB-231 cells, 3 days, n=2; for mRNA level at Max KD in MDA-MB-231: relative RTEL1 mRNA level at 50 μM oligonucleotide, PBS treated samples as control
Description: Human MDA-MB-231 cell lines were purchased from ATCC and maintained as recommended by the supplier in a humidified incubator at 37° C. with 5% CO2. For assays, 3500 cells/well of were seeded in a 96 multi well plate in culture media. Cells were incubated for 24 hours before addition of oligonucleotides dissolved in PBS. Highest screening concentration of oligonucleotides: 50 μM and subsequent 1:1 dilutions in 8 steps. 3 days after addition of oligonucleotides, the cells were harvested. RNA was extracted using the PureLink™ Pro 96 RNA Purification kit (Thermo Fisher Scientific) according to the manufacturer's instructions and eluated in 50 μl water. The RNA was subsequently diluted 10 times with DNase/RNase free Water (Gibco) and heated to 90° C. for one minute.
For gene expressions analysis, One Step RT-qPCR was performed using qScript™ XLT One-Step RT-qPCR ToughMix®, Low ROX™ (Quantabio) in a duplex set up. The following TaqMan primer assays were used for qPCR: RTEL1_Hs00249668_m1 [FAM-MGB] and endogenous control GUSB_Hs99999908_m1 [VIC-MGB]. All primer sets were purchased from Thermo Fisher Scientific.

Substance	RTEL % of control (Mean) [1]	cccDNA % of control (Mean) [2]	IC50 [3]	mRNA level at Max KD in MDA-MB-231 [3]
AATTttacatactctgGT (lA*lA*lT*lT*dT*dT*dA*dC*dA*dT*dA*dC*dT*dC*dT*dG*lG*lT) [CMP ID NO 243_1]	19 % of control	28 % of control	600 nM	38% of control
AAttttacatactctGGTC (lA*lA*dT*dT*dT*dT*dA*dC*dA*dT*dA*dC*dT*dC*dT*lG*lG*lT*l[5mC]) [CMP ID NO 244_1]	24 % of control	3 % of control	300 nM	14% of control
CTttattataactTgaAtCTC (l[5mC]*lT*dT*dT*dA*dT*dT*dA*dT*dA*dA*dC*dT*lT*dG*dA*lA*dT*l[5mC]*lT*l[5mC]) [CMP ID NO 246_1, RTEL1 alternating flank LNA gapmer]	21 % of control	39 % of control	400 nM	18% of control
TTacatactctggtCAAA (lT*lT*dA*dC*dA*dT*dA*dC*dT*dC*dT*dG*dG*dT*l[5mC]*lA*lA*lA) [CMP ID NO 245_1]	35 % of control	21 % of control	900 nM	9% of control
